Source: article PMC3811480, “The R Enantiomer of the Antitubercular Drug PA-824 as a Potential Oral Treatment for Visceral Leishmaniasis” (Antimicrobial Agents and Chemotherapy, 2013)
Several values for one entry are separate records, joined by “and”; a condition that tells them apart may be missing. Equal entries are not always repeated. Entries after “also recorded” stand apart in the source; their conditions may differ. Where two headings read alike, the source gives them in different places.

How the values were obtained:
[1] = tested on: promastigotes of the LdBOB strain of L. donovani; experiment: Drug combination studies (fixed-ratio isobologram, 72 h); format: cell-based, Leishmania donovani; details: for EC50: Leishmania donovani, compound alone, duplicate cultures, read-out: Absolute EC50
Method: The EC50s of each combination were determined after 72 h and plotted as an isobologram ([23]).

[2] = tested on: Trypanosoma brucei brucei S427 29-13 procyclic trypomastigotes; experiment: In vitro drug sensitivity assay, T. brucei procyclics (72 h, resazurin); format: cell-based
[3] = tested on: L. donovani intracellular amastigotes in mouse peritoneal macrophages; experiment: In-macrophage drug sensitivity assay; format: cell-based, Leishmania donovani; details: for EC50: L. donovani amastigote (in macrophage); for activity against L. donovani intracellular amastigotes: highest concentration tested 50 μM
in vitro = details: mouse, plasma
[4] = mouse liver microsomes, 0.5 μM compound
[5] = Exposure in mice after acute oral dosing (blood levels, UPLC-MS/MS); format: in vivo, BALB/c mice; details: for half-life: read-out: elimination half-life (t1/2) (converted); for Tmax: read-out: time of maximum concentration in blood
Method: The R and S enantiomers of PA-824 (50 mg kg^−1) were orally administered to BALB/c mice. Blood samples (10 μl) were collected from the tail vein of each animal into sample storage tubes (Micronic BV) containing deionized water (20 μl) at defined intervals postdose and stored at −80°C until analysis. The level of each enantiomer in mouse blood was determined by UPLC-MS/MS ([20]).

[6] = tested on: T. brucei bloodstream forms (S427 Single Marker); experiment: In vitro drug sensitivity assay, bloodstream-form T. brucei; format: cell-based; details: Trypanosoma brucei
[7] = tested on: Trypanosoma cruzi Silvio-X10/7 clone A1 epimastigotes; experiment: In vitro drug sensitivity assay, T. cruzi epimastigotes (72 h, resazurin); format: cell-based; details: T. cruzi epimastigote
LdBOB promastigotes = experiment: PA-824-mediated cell killing (time to kill, wash-out viability); format: cell-based, Leishmania donovani; details: 10 times EC50, promastigotes
[8] = tested on: Leishmania donovani LdBOB promastigotes; experiment: In vitro drug sensitivity assay, L. donovani promastigotes (72 h, resazurin); format: cell-based; details: for EC50: Leishmania donovani; for activity against L. donovani promastigotes: highest concentration tested 50 μM
[9] = tested on: L. donovani amastigotes (LV9); experiment: In vivo drug sensitivity, mouse model of visceral leishmaniasis (liver parasite burden); set-up: species or system Leishmania donovani; details: for suppression of infection (liver parasite burden) compared to untreated controls / suppression of infection (liver parasite burden): BALB/c mice; for suppression of infection (liver parasite burden) compared to untreated controls: 30 mg kg^−1 orally twice daily for 5 days
[10] = tested on: Transgenic LdBOB promastigotes expressing the Leishmania major nitroreductase (LmjF.05.0660); experiment: microbe, parasite or virus in culture; format: cell-based, Leishmania donovani; details: for EC50: Leishmania major, read-out: EC50 against NTR-overexpressing promastigotes
[11] = tested on: Mycobacterium tuberculosis; set-up: method as in PMID 22023140; details: cited from earlier work
[12] = Tolerability in mice during the efficacy study; format: in vivo, BALB/c mice; details: 30 or 100 mg kg^−1 orally twice daily for 5 days
Method: All animal experiments were approved by the University Ethical Review Committee and performed under the Animals (Scientific Procedures) Act 1986 in accordance with the European Communities Council Directive (86/609/EEC). Groups of female BALB/c mice (5 per group) were inoculated intravenously with approximately 2 × 10^7 L. donovani amastigotes (LV9; WHO designation MHOM/ET/67/HU3) harvested from the spleen of an infected hamster ([24]). […] Drug dosing solutions were prepared fresh each day, and the vehicle for both enantiomers of PA-824 was 10% (vol/vol) dimethyl sulfoxide (DMSO), 40% polyethylene glycol 400, and 50% deionized water. On day 14 postinfection, all animals were humanely euthanized and parasite burdens were determined by counting the number of amastigotes/500 liver cells ([11]). Parasite burden is expressed in Leishmania donovani units (LDU), mean number of amastigotes per liver cell × mg weight of liver ([25]).

[13] = tested on: T. cruzi amastigotes in Vero cells; experiment: In-Vero-cell T. cruzi drug sensitivity assay (72 h, high-content imaging); format: cell-based; details: Trypanosoma cruzi; T. cruzi amastigote (in Vero cell)
HepG2 cells = experiment: HepG2 counterscreen (resazurin); format: cell-based; details: Homo sapiens; Mammalian (HepG2); n = 2
[14] = mouse PPB, equilibrium dialysis
[15] = tested on: T. brucei bloodstream forms (S427 Single Marker); details: previously determined value; cited from earlier work
[16] = tested on: L. donovani intracellular amastigotes in mouse peritoneal macrophages; details: comparator value, earlier work of the authors; cited from earlier work
[17] = tested on: lab-generated strains of nifurtimox-resistant T. brucei; details: cited from earlier work
[18] = fixed-ratio isobologram, promastigotes
[19] = Leishmania donovani, Peritoneal macrophage
[20] = Leishmania donovani, Peritoneal macrophage, L. donovani in macrophages, from EC50 and Hill slope, read-out: EC90
[21] = BALB/c, mouse, whole blood, 50 mg kg^−1 oral
[22] = L. donovani promastigote, read-out: EC50
[23] = 100 mg kg^−1 orally twice daily for 5 days
[24] = WT LdBOB promastigotes, nitroreductase experiment (Fig. 2), read-out: EC50 against wild-type (WT) promastigotes

O=[N+]([O-])c1cn2c(n1)OC[C@H](OCc1ccc(OC(F)(F)F)cc1)C2 [(R)-PA-824]
EC50 ([1]; Fig. 3A experiment): 0.18 µM | EC50 ([1]; Fig. 3B experiment): 0.1 µM | interaction in combination with (S)-PA-824 [1, 18]: mild antagonistic behavior; also recorded: progressively more antagonistic; also recorded: mildly antagonistic | interaction in combination with fexinidazole sulfone [1, 18]: act additively; also recorded: additive effect | EC50 [2]: 25 ± 0.2 µM | EC50 [3]: 0.93 ± 0.06 µM | EC50 [3, 19]: 0.9 ± 0.1 µM | EC90 [3, 20]: 3.4 µM | EC90 ([3]; Leishmania donovani, Peritoneal macrophage, not adjusted for plasma protein binding, read-out: EC90 (equivalent mass concentration)): 1.2 µg/mL | fraction unbound (in vitro): 0.22 | CLint [4]: 0.65 mL/min/g | oral bioavailability [5]: orally bioavailable | maximum concentration in blood ([5]; 50 mg kg^−1 oral): 10,500 ng ml^−1 | half-life [5, 21]: ~2 h | Tmax [5, 21]: 4 h | EC50 [6]: 14.9 ± 0.7 µM | solubility (physchem): > 250 µM | EC50 [7]: 0.7 ± 0.08 µM | cytocidal or cytostatic (LdBOB promastigotes): leishmanicidal rather than cytostatic; also recorded: cytocidal rather than cytostatic | time after which cell numbers begin to decline (LdBOB promastigotes): 12 h | time at which no intact/live parasites remain (LdBOB promastigotes): 24 h | EC50 [8, 22]: 0.16 ± 0.03 µM | suppression of infection (liver parasite burden) compared to untreated controls [9]: approximately 35% | suppression of infection (liver parasite burden) [9, 23]: > 99% and 99.9% | EC50 [10]: 0.11 ± 0.005 µM | MIC [11]: > 100 µM | tolerability in mice [12]: extremely well tolerated | EC50 [13]: 4.4 ± 0.5 µM | EC50 (HepG2 cells): > 50 µM

FC(F)(F)Oc1ccc(CO[C@H]2COc3nccn3C2)cc1 [(R)-des-nitro-PA-824]
activity against L. donovani intracellular amastigotes [3]: inactive | fraction unbound (plasma protein binding) [14]: 0.45 | activity against L. donovani promastigotes [8]: inactive

O=[N+]([O-])c1cn2c(n1)OC[C@@H](OCc1ccc(OC(F)(F)F)cc1)C2 [(S)-PA-824, reference compound]
EC50 ([1]; Fig. 3B experiment): 0.74 µM | EC50 [2]: 36.5 ± 2.5 µM | EC50 [3]: 4.92 ± 0.3 µM | EC50 [3, 19]: 4.9 ± 0.3 µM | EC90 [3, 20]: 22 µM | fraction unbound (in vitro): 0.21 | CLint [4]: 1.6 mL/min/g | EC50 [15]: 37.8 ± 3.2 µM | oral bioavailability [5]: orally bioavailable | maximum concentration in blood ([5]; 50 mg kg^−1 oral): 11,600 ng ml^−1 | concentration at 24 h ([5]; BALB/c, mouse, whole blood, 50 mg kg^−1 oral, 24 h): 900 ng/mL | half-life [5, 21]: ~5 h | Tmax [5, 21]: 4 h | solubility (physchem): > 250 µM | EC50 [7]: 3.4 ± 0.03 µM | cytocidal or cytostatic (LdBOB promastigotes): leishmanicidal rather than cytostatic | time after which cell numbers begin to decline (LdBOB promastigotes): 12 h | time at which no intact/live parasites remain (LdBOB promastigotes): 36 h | EC50 [8, 22]: 0.9 ± 0.1 µM | EC50 [8, 24]: 0.96 ± 0.02 µM | suppression of infection (liver parasite burden) compared to untreated controls [9]: approximately 35% | suppression of infection (liver parasite burden) [9, 23]: comparable to those seen in drug-free animals; also recorded: less efficacious | dose dependence of leishmanicidal effect ([9]; earlier in vivo study, range of doses down to 0.4 mg kg^−1, twice daily orally (Fig. S1)): apparent absence of a dose-dependent leishmanicidal effect | EC50 [10]: 0.8 ± 0.04 µM | tolerability in mice [12]: extremely well tolerated | EC50 [13]: > 30 µM | EC50 (HepG2 cells): > 50 µM

FC(F)(F)Oc1ccc(CO[C@@H]2COc3nccn3C2)cc1 [(S)-des-nitro-PA-824]
activity against L. donovani intracellular amastigotes [3]: inactive | activity against L. donovani promastigotes [8]: inactive

Cn1c([N+](=O)[O-])cnc1COc1ccc(S(C)(=O)=O)cc1 [fexinidazole sulfone, reference compound]
EC50 ([1]; Fig. 3A experiment): 8.8 µM | EC50 [16]: 5.3 µM

CSc1ccc(OCc2ncc([N+](=O)[O-])n2C)cc1 [fexinidazole]
sensitivity of nifurtimox-resistant T. brucei [17]: cross resistant

CCCCCCCCCCCCCCCCOP(=O)([O-])OCC[N+](C)(C)C [miltefosine]
suppression of infection (liver parasite burden) ([9]; 12 mg kg^−1 orally once daily for 5 days): 68.7%

CC1CS(=O)(=O)CCN1/N=C/c1ccc([N+](=O)[O-])o1 (stereo not drawn) [nifurtimox]
EC50 [8, 24]: 5.6 ± 0.16 µM | EC50 [10]: 0.2 ± 0.09 µM | increase in sensitivity of nitroreductase-overexpressing parasites ([10]; transgenic versus wild-type): 26 fold

O.O.O.O.O.O.O.O.O.O=C([O-])[C@@H]1[O][Sb](=[O])([O][Sb]2(=[O])[O][C@H]([C@H](O)CO)[C@H](O)[C@H](C(=O)[O-])[O]2)[O][C@H]([C@H](O)CO)[C@@H]1O.[Na+].[Na+].[Na+] (stereo partly drawn) [sodium stibogluconate]
suppression of infection (liver parasite burden) ([9]; 15 mg kg^−1 subcutaneously once daily for 5 days): 41.9%
